# Laboratory results as given in patent publication US10342804B2, “Steroid compound for use in the treatment of hepatic encephalopathy” (Umecrine Cognition AB, priority 2014, dated 2019).
# Assays:
# Format in all cases: in vivo, rat
# hyperammonemic rats = experiment: Radial maze test, hyperammonemic rats (Example 10)
# Protocol: Male Wistar rats (140-160 g) were made hyperammonemic by feeding them a diet containing ammonium acetate (30% by weight) (Felipo et al, European Journal of Biochemistry, 1988, 176, 567-571).
# (§1) 3α-ethynyl-3β-hydroxyandrostan-17-one oxime in sesame oil was administered by subcutaneous injections in the back of the rats, once daily. Two different sets of experiments were performed in hyperammonemic rats. In the first set four groups of rats were used: 1) control rats injected with vehicle; 2) hyperammonemic rats injected with vehicle; 3) control rats injected with 20 mg/Kg of 3α-ethynyl-3β-hydroxyandrostan-17-one oxime and 4) hyperammonemic rats injected with 20 mg/Kg of 3α-ethynyl-3β-hydroxyandrostan-17-one oxime.
# In the second set of experiments five groups of rats were used: 1) control rats injected with vehicle; 2) hyperammonemiac rats injected with vehicle and 3-5) hyperammonemic rats injected with 3, 10 or 20 mg/Kg of 3α-ethynyl-3β-hydroxyandrostan-17-one oxime. In each experiment 6-8 rats per group were used.
# The apparatus was composed of a central area that gave access to eight equally-sized arms. The arms were 70 cm long and 10 cm wide and the central area was 30 cm in diameter. […] Rats were allowed to explore the maze for 10 minutes on two consecutive days in the presence of distal cues to adapt to the maze. Training in the radial maze was composed of three trials per day on six consecutive days. The task involved locating four pellets, each placed at the end of a different arm according to a random configuration as described by Hernandez-Rabaza et al. (Addiction Biology, 2010, 15, 413-423). The number of working memory errors (visits to arms already visited in the same trial) were recorded and expressed as working errors.
# blood ammonia [1] = experiment: Blood ammonia, PCS rats (Example 12)
# Protocol: (§2) Male Wistar rats (220-240 g) were anesthetized with isoflurane, and an end-to side porta-caval anastomosis was performed as described by Lee and Fisher (Surgery, 1961, 50, 668-672).
# (§3) Rats that were subjected to the porta-caval anastomosis procedure are herein referred to as “PCS rats”.
# as §1
# For the experiments using PCS rats, the following groups of rats were used: 1) Sham rats injected with vehicle; 2) PCS rats injected with vehicle; 3-4) PCS rats injected with 0.7 or 2.5 mg/Kg of 3α-ethynyl-3β-hydroxyandrostan-17-one oxime. The number of rats used in each experiment is either shown in the corresponding Figure or given in the description of the corresponding Figure.
# Blood ammonia was measured using the kit II Ammonia Arkray test (PocketChem BA, Arkray) using 20 μL of fresh blood following manufacturer's specifications.
# blood ammonia [2] = experiment: Ammonia determination in blood (Example 5)
# Text: The study was divided into two series with animals (male Wistar rats), each series included the following groups; Controls treated with vehicle (CV, n=8 per series), Controls treated with 3α-ethynyl-3β-hydroxyandrostan-17-one oxime (C+GAM, n=8 per series), hyperammonemic rats treated with vehicle (HAV, n=8 per series), hyperammonemic rats treated with 3α-ethynyl-3β-hydroxyandrostan-17-one oxime (HA+GAM, n=8 per series). The once daily treatment with 3α-ethynyl-3β-hydroxyandrostan-17-one oxime at 20 mg/kg or with vehicle was performed with subcutaneous injections of 1 ml/kg around 9 a.m. Treatment started one week after starting with the ammonium containing diet and continued for the whole experimental period.
# Blood was obtained from the tail of the rats (from Example 2) in the end of second week of ammonia treatment and first week of 3α-ethynyl-3β-hydroxyandrostan-17-one oxime treatment and also from the neck during the animal sacrifice. To obtain the plasma it was added EDTA […] and centrifuged at 1500 r.p.m during 5 minutes.
# Ammonia concentration in blood samples was measured using the Pocket chem BA (Woodley Equipment Company Ltd, United Kingdom), an ammonia analyzer. The device enables immediate testing and delivers results in 3 minutes and 20 s. It also eliminates the need for pre-processes such as centrifugal separation.
# PCS rats = experiment: Beam walking test, PCS rats (Example 8)
# Protocol: as §2, §3
# as §1, with “oxime. […]” for “oxime.”
# Motor coordination was tested as described by Gonzalez-Usano et al (ACS Chemical Neuroscience, 2014, 19, 5(2), 100-105) using a wooden beam (20 mm diameter). Rats were made to traverse a one-meter-long wooden beam located approximately one meter above the ground, and the number of foot faults (slips) was recorded by two observers. The rats were trained for the test by being made to traverse the beam up to five times before measurements were recorded. […]
structure (smiles),measurement,setting,value
C#C[C@]1(O)CC[C@@]2(C)C(CC[C@@H]3[C@@H]2CC[C@]2(C)/C(=N\O)CC[C@@H]32)C1 (stereo partly drawn) [3α-ethynyl-3β-hydroxyandrostan-17-one oxime],"Number of working errors in days 1-2, radial maze",hyperammonemic rats; 3 mg/kg,6.5±2.8 errors
same,"Number of working errors in days 1-2, radial maze",hyperammonemic rats; 10 mg/kg,8.8±1.9 errors
same,"Number of working errors in days 1-2, radial maze",hyperammonemic rats; 20 mg/kg,12±2 errors
same,Blood ammonia,blood ammonia [1]; 0.7 mg/Kg,302 ± 30 µM
same,Blood ammonia,blood ammonia [1]; 2.5 mg/Kg,294 ± 37 µM
same,Blood ammonia levels,blood ammonia [2]; control rats treated with 20 mg/kg s.c. once daily,55 ± 7 µM
same,Blood ammonia levels,blood ammonia [2]; hyperammonemic rats treated with 20 mg/kg s.c. once daily,139 ± 15 µM
same,"Number of slips, beam walking test",PCS rats; 0.7 mg/kg s.c. once daily,0.75±0.10 slips
same,"Number of slips, beam walking test",PCS rats; 2.5 mg/Kg s.c. once daily,0.8±0.1 slips
